This note sets out measurements from PMC3157426 (PLoS ONE, 2011).

“Also recorded” adds a separate entry of the source. Where two headings read alike, the source gives them in different places.

Experiment [1] deals with A/Mississippi/03/01 H1N1 H274Y mutant NA (Influenza A virus, UniProt Q289M4, H275Y). The class given is biochemical, influenza virus A/Mississippi/03/01 H1N1.
The target of experiment [2] is A/Fukui/45/04 H3N2 E119V mutant NA (Influenza A virus, UniProt C0IZY2, E119V). The class given is biochemical, influenza virus A/Fukui/45/04 H3N2.
The target in experiment [3] is B/Perth/211/01 D197E mutant NA (Influenza B virus, UniProt Q3S340, D197E). The experiment is classed as biochemical, influenza B virus B/Perth/211/01.
The mark [4] stands for this setting: read-out: IC50 at 10 min, 30' Pre.
Setting [5] is: read-out: IC50 at 10 min, No pre.
Where [6] appears, read: read-out: final IC50 after 60 min, 30' pre.
[7] abbreviates: read-out: final IC50 after 60 min, No pre.

For `CC(=O)N[C@H]1[C@H]([C@H](O)[C@H](O)CO)OC(C(=O)O)=C[C@@H]1O` [DANA, 2-deoxy,2,3-dehydro N-acetyl neuraminic acid], the “binding phenotype (slow or fast binding)” value in experiment [1], in experiment [2] and in experiment [3] was “fast binding” throughout. The “susceptibility compared to the wild type virus” value in experiment [3] is “Some reduced susceptibility”.
As for `CCC(CC)[C@H](NC(C)=O)[C@@H]1[C@H](O)[C@@H](C(=O)O)C[C@H]1N=C(N)N` [Peramivir, peramivir], the “10'/60 (ratio of IC50s), No pre” value turned out to be 0.7 in experiment [1], 7.2 in experiment [2] and 2.5 in experiment [3]. Further, the “60'/10 (ratio of IC50s), 30' Pre” value in experiment [1] and in experiment [2] was 1.5 in each case. The “No pre/pre (ratio of 60 min IC50s)” value came out at 1.3 in experiment [1], 10.2 in experiment [2] and 1.8 in experiment [3]. Further, the “binding phenotype (slow or fast binding)” value in experiment [1] and in experiment [3] was “loss of slow binding” each time. The IC50 in experiment [1] (setting [4]) came to 100 nM; in experiment [1] (setting [5]), 130 nM; in experiment [1] (setting [6]), 153 nM; in experiment [1] (setting [7]) it was 196 nM; in experiment [2] (setting [4]) it was 1.4 nM; in experiment [2] (setting [5]), 154 nM. Besides, the 50% inhibitory concentration (IC50) in experiment [2] (setting [6]) is 2.1 nM; in experiment [2] (setting [7]), 21.4 nM; in experiment [3] (setting [4]) it was 3.9 nM; in experiment [3] (setting [5]), 186 nM; in experiment [3] (setting [6]) it was 41.5 nM; in experiment [3] (setting [7]), 75.2 nM.
Turning to `CC(=O)N[C@H]1[C@H]([C@H](O)[C@H](O)CO)OC(C(=O)O)=C[C@@H]1N=C(N)N` [Zanamivir, zanamivir], the “binding phenotype (slow or fast binding)” value in experiment [1] is on record as “no impact on the binding kinetics”; in experiment [2] it was “slow binding phenotype”.
oseltamivir carboxylate: the entries for the “binding phenotype (slow or fast binding)” value in experiment [1] and in experiment [2] were “loss of slow binding” and “fast binding; also recorded: loss of slow binding”, respectively. Besides, the IC50 in experiment [1] (setting [4]) was determined as 1590 nM; in experiment [1] (setting [5]), 1900 nM; in experiment [1] (setting [6]) it was 2440 nM; in experiment [1] (setting [7]), 2350 nM; in experiment [2] (setting [4]) it was 122 nM; in experiment [2] (setting [5]) it was 178 nM. In addition, the IC50 turned out to be 260 nM in experiment [2] (setting [6]) and 208 nM in experiment [2] (setting [7]).

As usually defined, the IC50 is the concentration needed to halve the response being measured.
